Measured values published in the NIST ThermoML archive (doi:10.1016/j.jct.2015.04.027).

Test: xn = mol fraction of the nth substance listed
Settings: 100 kPa, Liquid; for viscosity: Falling or rolling sphere viscometry; for mass density: Vibrating tube method

CN(C)C(=[NH2+])N(C)C.c1c[n-]cn1 [1,1,3,3-tetramethylguanidinium imidazol-1-ide] + CCCCO
Settings | mass density, 293.15 K [kg/m3] | mass density, 298.15 K [kg/m3] | mass density, 303.15 K [kg/m3] | mass density, 308.15 K [kg/m3] | mass density, 313.15 K [kg/m3] | viscosity, 293.15 K [mPa·s] | viscosity, 298.15 K [mPa·s] | viscosity, 303.15 K [mPa·s] | viscosity, 308.15 K [mPa·s] | viscosity, 313.15 K [mPa·s]
x1 = 0.0499 | 828.74 | 824.87 | 820.97 | 817.04 | 813.07 | 3.053 | 2.7 | 2.399 | 2.141 | 1.92
x1 = 0.1004 | 845.73 | 841.79 | 837.82 | 833.83 | 829.83 | 3.248 | 2.868 | 2.549 | 2.276 | 2.04
x1 = 0.1999 | 875.01 | 870.95 | 866.87 | 862.77 | 858.67 | 3.727 | 3.272 | 2.89 | 2.569 | 2.298
x1 = 0.2997 | 899.57 | 895.41 | 891.24 | 887.07 | 882.9 | 4.41 | 3.801 | 3.323 | 2.931 | 2.604
x1 = 0.3985 | 920.24 | 916.05 | 911.78 | 907.55 | 903.31 | 5.155 | 4.414 | 3.823 | 3.343 | 2.948
x1 = 0.4997 | 938.26 | 933.99 | 929.7 | 925.4 | 921.09 | 6.003 | 5.029 | 4.322 | 3.751 | 3.286
x1 = 0.6499 | 960.31 | 955.97 | 951.62 | 947.27 | 942.92 | 7.076 | 5.887 | 5 | 4.267 | 3.737
x1 = 0.8002 | 978.39 | 974 | 969.59 | 965.19 | 960.8 | 8.02 | 6.617 | 5.547 | 4.739 | 4.097
x1 = 0.9004 | 988.56 | 984.14 | 979.72 | 975.28 | 970.84 | 8.6 | 7.032 | 5.877 | 5.021 | 4.299
x1 = 1 | 997.25 | 992.8 | 988.35 | 983.9 | 979.46 | 8.952 | 7.287 | 6.044 | 5.097 | 4.358

CN(C)C(=[NH2+])N(C)C.c1c[n-]cn1 [1,1,3,3-tetramethylguanidinium imidazol-1-ide] + CCCO
Settings | mass density, 293.15 K [kg/m3] | mass density, 298.15 K [kg/m3] | mass density, 303.15 K [kg/m3] | mass density, 308.15 K [kg/m3] | mass density, 313.15 K [kg/m3] | viscosity, 293.15 K [mPa·s] | viscosity, 298.15 K [mPa·s] | viscosity, 303.15 K [mPa·s] | viscosity, 308.15 K [mPa·s] | viscosity, 313.15 K [mPa·s]
x1 = 0.0499 | 828.16 | 824.06 | 819.94 | 815.79 | 811.6 | 2.428 | 2.146 | 1.91 | 1.707 | 1.532
x1 = 0.0999 | 849.03 | 844.89 | 840.71 | 836.52 | 832.3 | 2.667 | 2.354 | 2.095 | 1.873 | 1.682
x1 = 0.2002 | 882.18 | 877.95 | 873.7 | 869.43 | 865.15 | 3.294 | 2.886 | 2.55 | 2.268 | 2.029
x1 = 0.2996 | 907.96 | 903.66 | 899.35 | 895.03 | 890.71 | 4.062 | 3.516 | 3.078 | 2.712 | 2.406
x1 = 0.4002 | 928.67 | 924.33 | 919.98 | 915.62 | 911.26 | 4.872 | 4.168 | 3.606 | 3.154 | 2.778
x1 = 0.4988 | 945.34 | 940.97 | 936.59 | 932.2 | 927.81 | 5.686 | 4.798 | 4.126 | 3.577 | 3.129
x1 = 0.6264 | 962.87 | 958.47 | 954.06 | 949.65 | 945.24 | 6.646 | 5.548 | 4.716 | 4.052 | 3.512
x1 = 0.8001 | 981.42 | 976.99 | 972.55 | 968.12 | 963.7 | 7.842 | 6.46 | 5.443 | 4.625 | 3.991
x1 = 0.9006 | 990.16 | 985.73 | 981.29 | 976.85 | 972.41 | 8.401 | 6.898 | 5.825 | 4.927 | 4.225
x1 = 1 | 997.25 | 992.8 | 988.35 | 983.9 | 979.46 | 8.952 | 7.287 | 6.044 | 5.097 | 4.358

CN(C)C(=[NH2+])N(C)C.c1c[n-]cn1 [1,1,3,3-tetramethylguanidinium imidazol-1-ide] + CO
Settings | mass density, 293.15 K [kg/m3] | mass density, 298.15 K [kg/m3] | mass density, 303.15 K [kg/m3] | mass density, 308.15 K [kg/m3] | mass density, 313.15 K [kg/m3] | viscosity, 293.15 K [mPa·s] | viscosity, 298.15 K [mPa·s] | viscosity, 303.15 K [mPa·s] | viscosity, 308.15 K [mPa·s] | viscosity, 313.15 K [mPa·s]
x1 = 0.0501 | 840.28 | 835.36 | 830.44 | 825.51 | 820.57 | 0.905 | 0.829 | 0.765 | 0.709 | 0.659
x1 = 0.1005 | 872.86 | 868.04 | 863.19 | 858.35 | 853.49 | 1.272 | 1.108 | 1.014 | 0.931 | 0.859
x1 = 0.1957 | 912.69 | 907.98 | 903.25 | 898.51 | 893.76 | 1.979 | 1.768 | 1.592 | 1.442 | 1.314
x1 = 0.2953 | 938.06 | 933.41 | 928.74 | 924.08 | 919.38 | 2.761 | 2.423 | 2.148 | 1.918 | 1.724
x1 = 0.393 | 954.84 | 950.24 | 945.62 | 941 | 936.36 | 3.723 | 3.212 | 2.804 | 2.468 | 2.192
x1 = 0.5005 | 968.24 | 963.68 | 959.1 | 954.53 | 949.94 | 4.794 | 4.098 | 3.53 | 3.077 | 2.702
x1 = 0.6431 | 980.21 | 975.69 | 971.16 | 966.63 | 962.09 | 6.21 | 5.186 | 4.369 | 3.783 | 3.274
x1 = 0.7815 | 988.47 | 983.99 | 979.49 | 975 | 970.51 | 7.421 | 6.122 | 5.141 | 4.38 | 3.777
x1 = 0.8994 | 993.77 | 989.31 | 984.84 | 980.37 | 975.91 | 8.342 | 6.826 | 5.692 | 4.819 | 4.134
x1 = 1 | 997.25 | 992.8 | 988.35 | 983.9 | 979.46 | 8.952 | 7.287 | 6.044 | 5.097 | 4.358

CN(C)C(=[NH2+])N(C)C.c1c[n-]cn1 [1,1,3,3-tetramethylguanidinium imidazol-1-ide] + CCO
Settings | mass density, 293.15 K [kg/m3] | mass density, 298.15 K [kg/m3] | mass density, 303.15 K [kg/m3] | mass density, 308.15 K [kg/m3] | mass density, 313.15 K [kg/m3] | viscosity, 293.15 K [mPa·s] | viscosity, 298.15 K [mPa·s] | viscosity, 303.15 K [mPa·s] | viscosity, 308.15 K [mPa·s] | viscosity, 313.15 K [mPa·s]
x1 = 0.0483 | 821.2 | 816.85 | 812.47 | 808.06 | 803.63 | 1.422 | 1.289 | 1.174 | 1.072 | 0.982
x1 = 0.0999 | 848.92 | 844.52 | 840.1 | 835.66 | 831.19 | 1.714 | 1.548 | 1.405 | 1.28 | 1.17
x1 = 0.2003 | 888.15 | 883.71 | 879.24 | 874.77 | 870.28 | 2.371 | 2.114 | 1.897 | 1.711 | 1.549
x1 = 0.3001 | 916.24 | 911.78 | 907.3 | 902.82 | 898.33 | 3.145 | 2.755 | 2.438 | 2.173 | 1.949
x1 = 0.3999 | 937.23 | 932.77 | 928.29 | 923.8 | 919.31 | 4.057 | 3.498 | 3.054 | 2.69 | 2.388
x1 = 0.5 | 953.33 | 948.83 | 944.31 | 939.83 | 935.34 | 5.057 | 4.296 | 3.643 | 3.174 | 2.822
x1 = 0.643 | 970.7 | 966.31 | 961.81 | 957.39 | 952.91 | 6.351 | 5.318 | 4.452 | 3.891 | 3.384
x1 = 0.7966 | 984.34 | 979.99 | 975.53 | 971.06 | 966.6 | 7.695 | 6.345 | 5.333 | 4.539 | 3.911
x1 = 0.8987 | 991.38 | 986.93 | 982.47 | 978.02 | 973.57 | 8.46 | 6.936 | 5.786 | 4.909 | 4.229
x1 = 1 | 997.25 | 992.8 | 988.35 | 983.9 | 979.46 | 8.952 | 7.287 | 6.044 | 5.097 | 4.358
